Assays:
[1] = test system: mitochondrial membrane potential; assay: Mitochondrial membrane potential, TMRM assay; type: cell-based; conditions: CD1-012 10 μM or 15 μM, CCCP 10 μM, 24 hours (FIG. 6)
Experimental: (§1) It was confirmed whether the isoquinoline derivative according to the present invention induces mitochondrial dysfunction, similar to CCCP. To this end, the CD1-012 (10 μM or 15 μM) and CCCP (10 μM) were treated for 24 hours, and the mitochondrial membrane potential and mitochondrial reactive oxygen species (ROS) levels in each sample were analyzed. Mitochondrial membrane potential was analyzed using the TMRM (tetramethylrhodamine methyl ester) assay, and mitochondrial ROS levels were analyzed using the MitoSOX assay.

[2] = test system: mitochondrial reactive oxygen species (ROS); assay: Mitochondrial reactive oxygen species, MitoSOX assay; type: cell-based; conditions: CD1-012 10 μM or 15 μM, CCCP 10 μM, 24 hours (FIG. 6)
Experimental: as §1

[3] = test system: BEAS-2B cell line, in which PINK1 was knocked down; assay: Mitophagy activity in PINK1 knockdown (shPINK1) BEAS-2B cells (FACS); type: cell-based, human; conditions: CCCP 10 μM, CD1-012 15 μM, 18 hours (FIG. 7)
Description: In this example, it was confirmed whether the mitophagy activation function of the isoquinoline derivative according to the present invention is dependent on the PINK1-Parkin pathway. […]
In the following example, it was confirmed whether the novel isoquinoline derivative according to the present invention has a therapeutic effect of preventing or improving Parkinson's disease. Most of all, it was confirmed whether the treatment with the isoquinoline derivative improves mitochondrial dysfunction of a Parkinson's disease cell model. To this end, first, the induction of mitophagy by CD1-012 was verified. […] In addition, to analyze whether the mitophagy-promoting activity of CD1-012 is dependent on PINK1, PINK1 expression was inhibited (using shPNIK1) in BEAS-2B cells, which is a human normal lung cell line expressing a mitochondrial fluorescent protein, and mitophagy activity was analyzed by flow cytometry (FACS).

BEAS-2B cell line = assay: Mitophagy activity in BEAS-2B cells expressing mt-Keima (FACS, confocal microscope, mito-YFP); type: cell-based, human; conditions: BEAS-2B mt-Keima (FIG. 5)
Experimental: To analyze the mitophagy-promoting activity effect of the CD1-012 synthesized in the Example 1, the BEAS-2B cell line, which is a human normal lung cell line, was induced to express the mt-Keima fluorescent protein. Following this, the CD1-012 (15 μM) and the compound of Comparative Example 1, CCCP (10 μM), were treated for 24 hours. After the treatment, the mitophagy activity of each sample was measured, and the results were represented in FIGS. 1A to 1C.
Specifically, FIG. 1A represents the analysis results using flow cytometry (FACS) (treatment of CD1-012 at 15 μM for 24 hours), FIG. 1B represents the analysis results using a confocal microscope (treatment of CD1-012 at 15 μM for 18 hours), and FIG. 1C represents the measurement results of the quantitative changes in the mitochondria using a fluorescent protein, mito-YFP, which includes a targeting sequence to transport protein to the mitochondria (treatment of CD1-012 at 20 μM for 24 hours).
It was confirmed whether CD1-012 synthesized in Example 1 promotes mitophagy activity in a concentration- and time-dependent manner. To this end, the CD1-012 was treated at various concentrations or at a fixed concentration (15 μM) for different treatment durations in the BEAS-2B cell line expressing mt-Keima, and mitophagy activity was measured using a flow cytometer.
It was confirmed whether CD1-012 synthesized in Example 1 specifically increases only mitophagy activity. To this end, the BEAS-2B cell line expressing mt-Keima was treated with CD1-012 (15 μM) or Comparative Example 1 (CCCP, 10 μM) for 18 hours, and mitophagy activity was analyzed using a confocal microscope. Additionally, to measure autophagy activity, the BEAS-2B cell line expressing Keima fluorescent protein was incubated in Hanks' balanced salt solution (HBSS) for 3 hours to induce a starvation condition (starv.), and the results were compared with samples treated with CD1-012 (15 μM) for 18 hours using a confocal microscope.
To this end, the human normal lung cell line BEAS-2B, expressing mt-Keima fluorescent protein, was treated with CD1-012, Comparative Example 2 (palmatine), or Comparative Example 3 (berberine) at various concentrations, and the mitophagy-inducing activity of each sample was compared.

SMILES	mitochondrial membrane potential [1]	mitochondrial ROS levels [2]	mitophagy activation in PINK1 knockdown cell line (shPINK1) compared to control cell line (shNT) [3]	concentration at which mitophagy activity reached its maximum (BEAS-2B cell line) [µM]
N#CC(C#N)=NNc1cccc(Cl)c1 [CCCP, Carbonyl cyanide 3-chlorophenylhydrazone, reference compound]	significantly reduced	significantly increased	significantly decreased	
COc1ccc2cc3[n+](cc2c1OC)CCc1cc2c(cc1-3)OCO2 [berberine, Berberine, reference compound]				80
COc1cc2c(cc1OC)-c1cc3ccc(OC)c(OC)c3c[n+]1CC2 [palmatine, Palmatine, reference compound]				400

— US20260130894A1, “COMPOSITION COMPRISING ISOQUINOLINE DERIVATIVE AS ACTIVE INGREDIENT FOR PREVENTION OR TREATMENT OF PARKINSON'S DISEASE” (ALTMEDICAL CO., LTD., priority 2022, published 2026)
